1 molecule from US8557875B2, “Gene transfer agent composition containing polyamidoamine dendron” (Public University Corporation Osaka Prefecture University, priority 2009, dated 2013) can be followed below.

This assay relates to K562. Description: Gene transfer (GFP expression, luciferase activity) versus commercial agents (Example 5). Format: cell-based. As to conditions: K562 non-adherent cells; compared with Lipofectamine LTX and FuGENE HD. The protocol: pEGFP-C1 expressing a green fluorescent protein was used as a gene transfer plasmid; and adherent cells COS-7 and Hela-S3, and non-adherent cells K562, which were established cell lines, were used as target cells. Lipoplexes were individually prepared using DL-U2. Then, gene transfer was performed.
(i) A 20 mM Tris-HCl (pH 7.4) buffer was dispensed into three tubes at 35.5 μl (for NP ratio=6) for each of two tubes, and 23 μl (for NP ratio=8) for the remaining tube.
(ii) 1.0 μg of plasmid DNA (pCAG-GFP) was added to each of the three tubes prepared in step (i) at 2 μl (1.0 μg), and the contents were stirred.
(iii) A DL-U2 liposome solution was added to the three tubes prepared in step (ii) at 37.5 μl (N/P ratio=6) for each of two tubes, and 50 μl (N/P ratio=8) for the remaining tube.
(iv) 25 μl of an Opti-MEM (registered trademark) I Reduced-Serum Medium was further added, and the whole was thoroughly mixed and allowed to stand at room temperature for 5 minutes.
50 μl of the DL-plasmid DNA complex solution (N/P ratio=8) was added and mixed with the K562 cells. […]
(vii) 48 hours later, luciferase activity was measured according to the protocol of the luciferase assay system (Promega, E1501) (relative values based on the activity of LTX defined as 1 were graphed).

As for `CCCCCCCC/C=C\CCCCCCCCN(CCCCCCCC/C=C\CCCCCCCC)CCC(=O)NCCN(CCC(=O)NCCN)CCC(=O)NCCN` (racemic) [DL-G1-U2], the gene transfer activity entry was “excellent gene transfer activity”.
